Measurements published in patent publication US20240190874A1, “SMALL MOLECULE DEGRADERS OF ANDROGEN RECEPTOR” (THE REGENTS OF THE UNIVERSITY OF MICHIGAN, priority 2021, published 2024).
Where two headings read alike, the source gives them in different places.

How the values were obtained:
Assay type in all cases: cell-based
[1] = biological target: T1, AR (Homo sapiens, UniProt P10275); test: Degradation of AR in VCaP cells; conditions: VCaP cells; for Dmax: VCaP
T1 construct: Degradation of AR; Cellular potency; host or cells: VCaP cells
T1 sequence (P10275 1-920): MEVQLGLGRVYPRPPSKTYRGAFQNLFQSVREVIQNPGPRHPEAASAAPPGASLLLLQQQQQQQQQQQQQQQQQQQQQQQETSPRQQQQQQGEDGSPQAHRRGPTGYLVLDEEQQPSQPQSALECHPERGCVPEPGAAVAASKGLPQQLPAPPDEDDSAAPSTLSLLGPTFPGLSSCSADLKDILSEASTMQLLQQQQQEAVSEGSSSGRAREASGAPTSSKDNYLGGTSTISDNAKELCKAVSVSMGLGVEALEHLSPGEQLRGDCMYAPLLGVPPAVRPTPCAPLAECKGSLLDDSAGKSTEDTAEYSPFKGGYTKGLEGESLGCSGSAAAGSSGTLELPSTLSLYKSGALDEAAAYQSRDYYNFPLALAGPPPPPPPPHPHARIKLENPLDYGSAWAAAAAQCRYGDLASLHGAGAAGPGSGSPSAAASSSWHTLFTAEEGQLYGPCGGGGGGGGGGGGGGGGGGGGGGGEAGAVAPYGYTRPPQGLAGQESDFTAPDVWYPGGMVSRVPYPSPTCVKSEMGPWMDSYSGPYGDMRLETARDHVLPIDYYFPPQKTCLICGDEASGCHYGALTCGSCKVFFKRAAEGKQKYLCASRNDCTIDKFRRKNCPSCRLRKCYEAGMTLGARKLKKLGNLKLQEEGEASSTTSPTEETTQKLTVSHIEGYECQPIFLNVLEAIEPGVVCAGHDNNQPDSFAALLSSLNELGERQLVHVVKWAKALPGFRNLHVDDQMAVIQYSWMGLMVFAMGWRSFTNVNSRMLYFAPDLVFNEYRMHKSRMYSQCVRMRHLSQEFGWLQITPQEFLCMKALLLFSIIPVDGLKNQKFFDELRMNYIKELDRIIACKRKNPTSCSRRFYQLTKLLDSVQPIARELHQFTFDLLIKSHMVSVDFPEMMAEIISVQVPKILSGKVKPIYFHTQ
Experimental: (§1) Biological Assays. LNCaP and VCaP cells used were purchased from American Type Culture Collection (ATCC). LNCaP were grown in RPMI 1640 (Invitrogen) and VCaP cells were grown in DMEM with Glutamax (Invitrogen). All of the cells were supplemented with 10% fetal bovine serum (Invitrogen) at 37° C. in a humidified 5% CO2 incubator.

[2] = test system: LNCaP cells; test: Cellular potency (IC50) in LNCaP cells
Experimental: as §1

[3] = test system: VCaP cells; test: Cellular potency (IC50) in VCaP cells
Experimental: as §1

Row | SMILES | DC50 [1] [nM] | IC50 ([2]; Homo sapiens, LNCaP) [nM] | IC50 ([3]; Homo sapiens, VCaP) [nM] | Dmax [1] [%] | Degradation of AR in VCaP cells Dmax [1] | IC50 [2] [nM] | IC50 [3] [nM]
1 | C[C@H]1CC2(CCN(c3ccc(C(=O)N4CCC(CN5CCOc6cc7c(cc6C5)C(=O)N(C5CCC(=O)NC5=O)C7=O)CC4)cc3)CC2)CN1c1ccc(C#N)c(Cl)c1 (some centres unmarked) [compound 195] | < 10 | < 10 | < 100 | – | – | – | –
2 | C[C@H]1CC2(CCN(c3ccc(CN4CCN(C5CN(c6ccc7c(c6)C(=O)N(C6CCC(=O)NC6=O)C7=O)C5)CC4)cc3)CC2)CN1c1ccc(C#N)c(Cl)c1 (some centres unmarked) [compound 5] | < 1 | < 10 | < 10 | > 90 | – | – | –
3 | C[C@H]1CC2(CCN(c3ccc(CN4CC(N5CCN(c6ccc7c(c6)C(=O)N(C6CCC(=O)NC6=O)C7=O)CC5)C4)cn3)CC2)CN1c1ccc(C#N)c(Cl)c1 (some centres unmarked) [compound 204] | < 1 | < 10 | < 10 | – | – | – | –
4 | C[C@H]1CC2(CCN(c3ccc(OC4CN(C5CCN(c6ccc7c(c6)C(=O)N(C6CCC(=O)NC6=O)C7=O)CC5)C4)cn3)CC2)CN1c1ccc(C#N)c(Cl)c1 (some centres unmarked) [compound 70] | < 100 | < 1000 | < 1000 | 50 to 70 | – | – | –
5 | C[C@H]1CC2(CCN(c3ccc(N4CCC(OC5CN(c6ccc7c(c6)C(=O)N(C6CCC(=O)NC6=O)C7=O)C5)CC4)cc3)CC2)CN1c1ccc(C#N)c(Cl)c1 (some centres unmarked) [compound 90] | < 1 | < 10 | < 10 | > 90 | – | – | –
6 | C=C1CCC(N2C(=O)c3ccc(N4CC(C5CCN(Cc6ccc(N7CCC8(CC7)C[C@H](C)N(c7ccc(C#N)c(Cl)c7)C8)cc6)CC5)C4)cc3C2=O)C(=O)N1 (some centres unmarked) [compound 16] | – | < 10 | < 10 | > 90 | – | – | –
7 | C[C@H]1CC2(CCN(c3ccc(CN4CCN(C5CCN(c6ccc7c(c6)C(=O)N(C6CCC(=O)NC6=O)C7=O)CC5)CC4)c(F)c3)CC2)CN1c1ccc(C#N)c(Cl)c1 (some centres unmarked) [compound 42] | < 10 | – | – | – | A (A = >90%) | < 100 | < 100
8 | C[C@H]1CC2(CCN(c3ccc(CC4CCN(CC5CN(c6ccc7c(c6)C(=O)N(C6CCC(=O)NC6=O)C7=O)C5)CC4)cc3)CC2)CN1c1ccc(C#N)c(Cl)c1 (some centres unmarked) [compound 25] | < 1 | < 10 | < 10 | > 90 | – | – | –
9 | C[C@H]1CC2(CCN(c3ccc(N4CCN(CC5CCN(c6ccc7c(c6)C(=O)N(C6CCC(=O)NC6=O)C7=O)CC5)CC4)nc3)CC2)CN1c1ccc(C#N)c(Cl)c1 (some centres unmarked) [compound 35] | < 1 | < 10 | < 10 | > 90 | – | – | –
10 | C[C@H]1CC2(CCN(c3ccc(CN4CCC(N5CCN(c6cc7c(cc6F)C(=O)N(C6CCC(=O)NC6=O)C7=O)CC5)CC4)cn3)CC2)CN1c1ccc(C#N)c(Cl)c1 (some centres unmarked) [compound 168] | < 10 | < 10 | < 10 | – | – | – | –
11 | C[C@H]1CC2(CCN(c3ccc(CN4CCN(C5CCN(c6ccc7c(c6)C(=O)N(C6CCC(=O)NC6=O)C7=O)CC5)CC4)c(F)c3)CC2)CN1c1ccc(C#N)c(Cl)c1 (some centres unmarked) [compound 10] | < 10 | – | – | > 90 | – | < 10 | < 10
12 | C[C@H]1CC2(CCN(c3ccc(N4CCN(CC5CCN(c6ccc7c(c6)C(=O)N(C6CCC(=O)NC6=O)C7=O)CC5)CC4)cc3)CC2)CN1c1ccc(C#N)c(Cl)c1 (some centres unmarked) [compound 30] | < 1 | < 10 | < 10 | > 90 | – | – | –
13 | C=C1CCC(N2C(=O)c3ccc(N4CCC(N5CCC(Cc6ccc(N7CCC8(CC7)C[C@H](C)N(c7ccc(C#N)c(Cl)c7)C8)cc6)CC5)CC4)cc3C2=O)C(=O)N1 (some centres unmarked) [compound 24] | – | < 10 | < 10 | > 90 | – | – | –
14 | C[C@H]1CC2(CCN(c3ccc(S(=O)(=O)C4CCN(CC5CN(c6ccc7c(c6)C(=O)N(C6CCC(=O)NC6=O)C7=O)C5)CC4)cc3)CC2)CN1c1ccc(C#N)c(Cl)c1 (some centres unmarked) [compound 164] | < 1 | < 100 | < 10 | – | – | – | –
15 | C[C@H]1CC2(CCN(c3ccc(C4CCN(CC5CN(c6ccc7c(c6)C(=O)N(C6CCC(=O)NC6=O)C7=O)C5)CC4)cn3)CC2)CN1c1ccc(C#N)c(Cl)c1 (some centres unmarked) [compound 43] | < 1 | < 10 | < 10 | > 90 | – | – | –
16 | C[C@H]1CC2(CCN(c3ccc(CN4CCC(C5CN(c6ccc7c(c6)C(=O)N(C6CCC(=O)NC6=O)C7=O)C5)CC4)cn3)CC2)CN1c1ccc(C#N)c(Cl)c1 (some centres unmarked) [compound 176] | < 10 | < 10 | < 10 | – | – | – | –
17 | C[C@H]1CC2(CCN(c3ccc(CN4CCC(C5CCN(c6ccc7c(c6)C(=O)N(C6CCC(=O)NC6=O)C7=O)CC5)CC4)nc3)CC2)CN1c1ccc(C#N)c(Cl)c1 (some centres unmarked) [compound 181] | < 1 | < 10 | < 100 | – | – | – | –
18 | C[C@H]1CC2(CCN(c3cnc(C(=O)N4CCN(C5CN(c6ccc7c(c6)C(=O)N(C6CCC(=O)NC6=O)C7=O)C5)CC4)s3)CC2)CN1c1ccc(C#N)c(Cl)c1 (some centres unmarked) [compound 137] | < 10 | < 100 | < 100 | 70 to 90 | – | – | –
19 | C[C@H]1CC2(CCN(c3cnc(N4CCN(CC5CCN(c6ccc7c(c6)C(=O)N(C6CCC(=O)NC6=O)C7=O)CC5)CC4)cn3)CC2)CN1c1ccc(C#N)c(Cl)c1 (some centres unmarked) [compound 50] | < 10 | < 100 | < 100 | > 90 | – | – | –
20 | C[C@H]1CC2(CCN(c3ccc(CC4CCN(C5CN(c6ccc7c(c6)C(=O)N(C6CCC(=O)NC6=O)C7=O)C5)CC4)cn3)CC2)CN1c1ccc(C#N)c(Cl)c1 (some centres unmarked) [compound 196] | < 1 | < 10 | < 100 | – | – | – | –
21 | C[C@H]1CC2(CCN(c3ccc(N4CCC(CN5CCN(c6ccc7c(c6)C(=O)N(C6CCC(=O)NC6=O)C7=O)CC5)CC4)nn3)CC2)CN1c1ccc(C#N)c(Cl)c1 (some centres unmarked) [compound 55] | < 10 | < 100 | < 100 | > 90 | – | – | –
22 | C[C@H]1CC2(CCN(c3ccc(OC4CN(C5CCN(c6ccc7c(c6)C(=O)N(C6CCC(=O)NC6=O)C7=O)CC5)C4)nn3)CC2)CN1c1ccc(C#N)c(Cl)c1 (some centres unmarked) [compound 74] | < 100 | < 1000 | < 1000 | 50 to 70 | – | – | –
23 | C[C@H]1CC2(CCN(c3ccc(C(=O)N4CCC(C(=O)CN5Cc6cc7c(cc6C5)C(=O)N(C5CCC(=O)NC5=O)C7=O)CC4)nc3)CC2)CN1c1ccc(C#N)c(Cl)c1 (some centres unmarked) [compound 160] | < 1 | < 10 | < 1000 | – | – | – | –
24 | C[C@H]1CC2(CCN(c3cnc(CN4CCN(C5CCN(c6ccc7c(c6)C(=O)N(C6CCC(=O)NC6=O)C7=O)CC5)CC4)nc3)CC2)CN1c1ccc(C#N)c(Cl)c1 (some centres unmarked) [compound 171] | < 10 | < 10 | < 100 | – | – | – | –
25 | C=C1CCC(N2C(=O)c3ccc(N4CC(N5CCC(Cc6ccc(N7CCC8(CC7)C[C@H](C)N(c7ccc(C#N)c(Cl)c7)C8)cc6)CC5)C4)cc3C2=O)C(=O)N1 (some centres unmarked) [compound 23] | – | < 10 | < 10 | > 90 | – | – | –
26 | C[C@H]1CC2(CCN(c3ccc(S(=O)(=O)N4CCC(N5Cc6cc7c(cc6C5)C(=O)N(C5CCC(=O)NC5=O)C7=O)CC4)cc3)CC2)CN1c1ccc(C#N)c(Cl)c1 (some centres unmarked) [compound 4] | < 1 | < 10 | < 10 | 70 to 90 | – | – | –
27 | C=C1CCC(N2C(=O)c3ccc(N4CCC(N5CCN(Cc6ccc(N7CCC8(CC7)C[C@H](C)N(c7ccc(C#N)c(Cl)c7)C8)cc6)CC5)CC4)cc3C2=O)C(=O)N1 (some centres unmarked) [compound 18] | – | < 10 | < 10 | > 90 | – | – | –
